Source: patent US20230150920A1, “SALTS AND SOLID FORMS OF 4-BROMO-2,5-DIMETHOXYPHENETHYLAMINE” (priority 2021, published 2023)
“Also recorded” adds a separate entry of the source.

How the values were obtained:
Type in all cases: physicochemical
[1] = Dynamic vapor sorption/desorption (DVS), hygroscopicity; conditions: for Hygroscopicity: grade in words, from DVS; for Water uptake (5-95% RH) %: total
Experimental: The active pharmaceutical ingredient (API), 4-bromo-2,5-dimethoxyphenethylamine hydrochloride, is characterized to evaluate its physical properties. The evaluation is performed by X-ray powder diffraction (XRPD), polarized light microscopy (PLM), differential scanning calorimetry (DSC), thermogravimetry (TG), dynamic vapor sorption/desorption (DVS), and/or solubility testing in organic solvents, water, and mixed solvent systems. XRPD data are used to assess crystallinity. PLM data are used to evaluate crystallinity and particle size/morphology. DSC data are used to evaluate melting point, thermal stability, and crystalline form conversion. TG data are used to evaluate if the API is a solvate or hydrate, and to evaluate thermal stability. DVS data are used to evaluate hygroscopicity of the API and if hydrates can be formed at high relative humidity.
The form characterized in FIGS. 1 and 2 is designated as Form A herein. […] A sharp endotherm at 238° C. in the DSC thermogram is attributed to melting.

[2] = Dynamic vapor sorption (DVS) with XRPD of the post-DVS sample; conditions: for hygroscopicity based on DVS data / moisture gain by DVS / moisture gain by DVS, equivalent moles of water: 25° C.; for hygroscopicity based on DVS data: 5 to 95% RH; for moisture gain by DVS / moisture gain by DVS, equivalent moles of water: adsorption 5 to 95% RH; for post-DVS XRPD result: XRPD of the post-DVS sample; for DVS desorption weight loss, 95-5% RH: desorption 95-5% RH; for behaviour on desorption / form change by XRPD of post-DVS sample: desorption 95 to 5% RH; for DVS sorption weight gain, 5-95% RH: sorption 5-95% RH; for DVS desorption weight loss, 85-5% RH: desorption 85-5% RH; for DVS desorption weight loss, 95-85% RH: desorption 95-85% RH; for DVS sorption weight gain, 5-85% RH: sorption 5-85% RH; for DVS sorption weight gain, 85-95% RH: sorption 85-95% RH
Experimental: Dynamic Vapor Sorption (DVS) analysis was carried out using a TA Instruments Q5000 Dynamic Vapor Sorption analyzer. The instrument was calibrated with standard weights and a sodium bromide standard for humidity. Approximately 10-25 mg of sample was loaded into a metal-coated quartz pan for analysis. The sample was analyzed at 25° C. with a maximum equilibration time of one hour in 10% relative humidity (RH) steps from 5 to 95% RH (adsorption cycle) and from 95 to 5% RH (desorption cycle). The movement from one step to the next occurred either after satisfying the equilibrium criterion of 0.01% weight change or, if the equilibrium criterion was not met, after one hour. The percent weight change values were calculated using Microsoft Excel.
(§1) The DVS analysis was carried out using a TA Instruments Q5000 Dynamic Vapor Sorption analyzer. 13.5 mg of sample was loaded into a metal-coated quartz pan for analysis. After equilibration to 5% relative humidity (RH), the sample was analyzed at 25° C. in 10% RH steps from 5 to 95% RH (adsorption cycle) and from 95 to 5% RH (desorption cycle). The movement from one step to the next occurred either after satisfying the equilibrium criterion of 0.01% weight change in 5 minutes or, if the equilibrium criterion was not met, after 90 minutes. The percent weight change values are calculated using Microsoft Excel®.
as §1, with “DVS analyses were” for “DVS analysis was”, “analyzer. Approximately 7-11” for “analyzer. 13.5”, “equilibration at” for “equilibration to”, “values were” for “values are”
as §1, with “analyzer. Approximately 2” for “analyzer. 13.5”, “equilibration at” for “equilibration to”, “values were” for “values are”

[3] = Deliquescence at 75% RH at ambient temperature
[4] = several days at 75% RH at ambient temperature

For COc1cc(CCN)c(OC)cc1Br.O=C(O)c1cc(O)ccc1O [Gentisate, 2C-B gentisate], the “Hygroscopicity: weight gain” value ([1]; 5-95% RH) was 5-95% RH: 0.2%, the Hygroscopicity [1] was “Non-hygroscopic;” and the “Water uptake (5-95% RH) %” value ([1]; 5-95% RH) was 0.20%. The “hygroscopicity based on DVS data” value [2] was “non-hygroscopic”, the “moisture gain by DVS” value [2] was 0.2% and the “moisture gain by DVS, equivalent moles of water” value (shortened to “moisture gain by DVS … of water”) [2] was 0.05 mol. For the same compound, the “post-DVS XRPD result” value [2] was “Crystalline, consistent”, the “DVS desorption weight loss, 95-5% RH” value [2] was 95-5% RH: 0.2% loss and the “behaviour on desorption / form change by XRPD of post-DVS sample” value (“behaviour on desorption / form change” below) [2] was “form change does not occur”. The “DVS sorption weight gain, 5-95% RH” value [2] was 5-95% RH: 0.2% gain, the deliquescence ([3]; at 75% RH) was “Did not deliquesce” and the deliquescence [3, 4] was “not observed; also recorded: does not deliquesce”.
In the case of COc1cc(CCN)c(OC)cc1Br.O=S(=O)(O)c1ccccc1 [Besylate (Form 1), 2C-B besylate], the “Hygroscopicity: weight gain” value ([1]; 5-95% RH) was 5-95% RH: 0.7%, the Hygroscopicity [1] was “Slightly” and the “hygroscopicity based on DVS data” value [2] was “slightly hygroscopic”. For the same compound, the “moisture gain by DVS” value [2] was 0.7%, the “moisture gain by DVS … of water” value [2] was 0.2 mol and the “post-DVS XRPD result” value [2] was “Consistent with Besylate (Form 1)”. The “DVS desorption weight loss, 95-5% RH” value [2] was 95-5% RH: 0.7% loss, the “behaviour on desorption / form change” value [2] was “does not undergo form conversion” and the “DVS sorption weight gain, 5-95% RH” value [2] was 5-95% RH: 0.7% gain. For the same compound, the deliquescence ([3]; at 75% RH) was “Did not deliquesce” and the deliquescence [3, 4] was “not observed”.
In the case of COc1cc(CCN)c(OC)cc1Br.CS(=O)(=O)O [Mesylate, 2C-B mesylate], the “Hygroscopicity: weight gain” value ([1]; <85% RH) was “RH: 2.7%”, the “Hygroscopicity: weight gain” value ([1]; >85% RH) was “RH: 4.5% gain” and the Hygroscopicity [1] was “Hygroscopic; <85%”. The “hygroscopicity based on DVS data” value [2] was “hygroscopic”, the “moisture gain by DVS” value [2] was 7.2% and the “moisture gain by DVS … of water” value [2] was “approximately 1.5 moles”. For the same compound, the “post-DVS XRPD result” value [2] was “Consistent with Mesylate”, the “DVS desorption weight loss, 85-5% RH” value [2] was 85-5% RH: 3.0% loss and the “DVS desorption weight loss, 95-85% RH” value [2] was 95-85% RH: 4.4% loss. For the same compound, the “behaviour on desorption / form change” value [2] was “form change is not apparent by XRPD”, the “DVS desorption total loss” value [2] was “Total loss: 7.4%” and the “DVS sorption weight gain, 5-85% RH” value [2] was 5-85% RH: 2.7% gain. For the same compound, the “DVS sorption weight gain, 85-95% RH” value [2] was 85-95% RH: 4.5% gain, the “DVS sorption total gain” value [2] was “Total gain: 7.2%” and the deliquescence ([3]; at 75% RH) was “Did not deliquesce”. The deliquescence [3, 4] was “not observed”.
In the case of COc1cc(CCN)c(OC)cc1Br.O=S(=O)(O)O [Sulfate, 2C-B sulfate], the “Water uptake (5-85% RH) %” value ([1]; 5-85% RH part of sorption) was 0.8%, the “Water uptake (85-95% RH) %” value ([1]; 85-95% RH part of sorption) was “(5-85), 1.4 (85-95) %” and the “Hygroscopicity: weight gain” value ([1]; <85% RH) was “RH: 0.8%”. For the same compound, the “Hygroscopicity: weight gain” value ([1]; >85% RH) was “RH: 1.4%”, the Hygroscopicity [1] was “Slightly” and the “Water uptake (5-95% RH) %” value ([1]; 5-95% RH) was 2.2%. The “hygroscopicity based on DVS data” value [2] was “slightly hygroscopic”, the “moisture gain by DVS” value [2] was 2.2% and the “moisture gain by DVS … of water” value [2] was “approximately 0.5 moles”. For the same compound, the “post-DVS XRPD result” value [2] was “Consistent with Sulfate”, the “DVS desorption weight loss, 85-5% RH” value [2] was 85-5% RH: 0.8% loss and the “DVS desorption weight loss, 95-85% RH” value [2] was 95-85% RH: 1.3% loss. The “behaviour on desorption / form change” value [2] was “form change does not occur”, the “DVS desorption total loss” value [2] was “Total loss: 2.1%” and the “DVS sorption weight gain, 5-85% RH” value [2] was 5-85% RH: 0.8% gain. The “DVS sorption weight gain, 85-95% RH” value [2] was 85-95% RH: 1.4% gain, the “DVS sorption total gain” value [2] was “Total gain: 2.2%” and the deliquescence ([3]; at 75% RH) was “Did not deliquesce”. The deliquescence [3, 4] was “not observed”.
In the case of COc1cc(CCN)c(OC)cc1Br.O=C(O)C(O)C(O)C(=O)O [Tartrate (Form 1), 4-bromo-2,5-dimethoxyphenethylamine (2C-B) tartrate], the “Hygroscopicity: weight gain” value ([1]; 5-95% RH) was 5-95% RH: 0.1%, the Hygroscopicity [1] was “Non-hygroscopic;” and the “Water uptake (5-95% RH) %” value ([1]; 5-95% RH) was 0.1%. For the same compound, the “hygroscopicity based on DVS data” value [2] was “non-hygroscopic”, the “moisture gain by DVS” value [2] was 0.1% and the “post-DVS XRPD result” value [2] was “Crystalline, consistent”. The “DVS desorption weight loss, 95-5% RH” value [2] was 95-5% RH: 0.1% loss, the “behaviour on desorption / form change” value [2] was “Form change does not occur” and the “DVS sorption weight gain, 5-95% RH” value [2] was 5-95% RH: 0.1% gain. For the same compound, the deliquescence ([3]; at 75% RH) was “Did not deliquesce” and the deliquescence [3, 4] was “not observed; also recorded: does not deliquesce”.
